Measurements as given in patent US20130237601A1, “COMPOSITION FOR THE TREATMENT AND/OR PREVENTION OF FIRE BLIGHT” (LANXESS DISTRIBUTION GMBH, priority 2006, published 2013).
Counter-ions that a name gives are not always drawn.

Test system: Erwinia amylovora
Assay: Test for inhibitory activity against Erwinia amylovora (inhibitory zone on CYE medium plates)
Format: cell-based
Details: after 24 hours, read-out: Inhibitory zone diameter
Protocol: 10 μl of an Erwinia amylovora suspension were plated onto CYE medium at a density of 10^8 cfu/ml. Thereafter, a hole 5 mm in diameter was punched into the center of the plates, and 20 μl of the test solution were introduced. After 24 hours, the inhibitory zone was measured. The reference substance was streptomycin sulfate, and the negative control was tap water.
The product used was an aqueous solution of the preparation according to the invention in the form of granules of formic acid and/or a salt of formic acid, in particular calcium formate, whose content in formic acid and/or a salt of formic acid, in particular calcium formate, was approximately 80% by weight. This preparation was diluted with tap water to give the concentrations stated (based on the granules).

For `[H]/N=C(/N)N[C@H]1[C@H](O)[C@@H](O)[C@H](O[C@@H]2O[C@@H](C)[C@](O)(C=O)[C@H]2O[C@@H]2O[C@@H](CO)[C@H](O)[C@@H](O)[C@@H]2NC)[C@@H](N/C(N)=N\[H])[C@@H]1O` [Streptomycin sulfate, streptomycin sulfate], the zone of inhibition at 0.001 % strength (concentration 0.001% by weight) was 16 mm, the zone of inhibition at 0.01 % strength (concentration 0.01% by weight) was 20 mm and the zone of inhibition at 0.1 % strength (concentration 0.1% by weight) was 24 mm.
